# Data as given in patent publication US20190269705A1, “METHODS AND MATERIALS FOR TREATING GRAFT VERSUS HOST DISEASE” (Regents of the University of Minnesota, priority 2017, published 2019).
# Entries after “also recorded” stand apart in the source; their conditions may differ.
# How the values were obtained:
# Type in all cases: cell-based, mouse
# stimulated T cells = assay: Oxygen Consumption Rate (Seahorse) of stimulated CD4 T cells; conditions: CD4 cells stimulated on CD3/CD28; 1 μM CB839, 5 μM UK5099 injected separately or in combination
# Method: Experiments were carried out on Agilent Seahorse XF96 bioanalyzer (Agilent). Briefly, wild type CD4+ cells were isolated as previous and activated for 3 days on CD3/CD28 as previously described, or skewed to Th1 and Th17 subsets as described above. T cells were spun onto XF96 Cell-Tak (BD Bioscience, Cat #: 354240) coated plates and rested in Seahorse XF RPMI 1640 media supplemented with glutamine, sodium pyruvate, and glucose. For immediate metabolic response, CB839 and UK5099 were injected separately or in combination, and OCR and ECAR measured.
# Experiments were carried out on Agilent Seahorse XF96 bioanalyzer (Agilent). Briefly, wild type CD4+ cells were isolated as previous and activated for 3 days on αCD3/CD28 coated plates as previously described, or skewed to Th1 and Th17 subsets as described above. T cells were isolated and spun onto XF96 Cell-Tak (BD Bioscience, Cat #: 354240) coated plates and rested in Seahorse XF RPMI 1640 media supplemented with glutamine, sodium pyruvate, and glucose. For immediate metabolic response, 1 μM CB839 and 5 μM UK5099 (Cat #: PZ0160-5MG) were injected separately or in combination, and OCR and ECAR measured. For activation response, 1 uM CB839 was injected into IL-7 maintained naïve CD4+ T cells in seahorse medium and allowed to incubate for 20 minutes, followed by soluble αCD3/CD28 injection.
# Th17 cells [1] = assay: Intracellular metabolites by mass spectrometry and pathway analysis, Th17; conditions: for Hits: Th17 Pathway
# Method: Glucose uptake assays were performed as described elsewhere (see, e.g., Macintyre et al., 2014 Cell Metab. 20(1):61-72). Naïve CD4+ T cells were differentiated into Th1 and Th17 cells, in triplicate, in the presence or absence of CB839 over 5 days and spun down after reisolation using CD4 kit as previously described. Cells were washed 2× in PBS, counted, then rested in 1 mL Kreb's Ringers HEPES (KRH) for 10 minutes. Cells were spun and resuspended to 5×10^5 cells/50 uL KRH for glucose uptake assay. Briefly, cells were […]. Cells incubated for 10 minutes at 37° C. Immediately after incubation, reaction was quenched with 200 μM phloretin (Calbiochem, Cat #: 524488). Cells were spun, washed, and then resuspended in scint fluid for counting on Beckman-Coulter scintillation counter. Pathway analysis of altered metabolites was performed using Metaboanalyst 3.0 (metaboanalyst. ca/faces/home.xhtml).
# Differentiation: CD4 cells were isolated as previously described and differentiated in subset-specific medium (in triplicate) for 3 days, split at day 3 with new media and IL-2, then allowed to incubate a further 2 days. At day 5, wells were combined, cells washed lx in MACS buffer, re-isolated for CD4 via AutoMACS Pro automated magnetic separator (Miltenyi, Cat #: 130-092-545). Metabolites from Th1 and Th17 cells were extracted as described above.
# Differentiation. CD4 cells were isolated as previously described and differentiated in subset-specific medium in the presence of vehicle or CB839 (in triplicate) for 3 days, split at day 3 with new media and IL-2, then allowed to incubate a further 2 days. At day 5, wells were combined, cells washed 1× in MACS buffer and re-isolated for CD4 via AutoMACS Pro automated magnetic separator (Miltenyi, Cat #: 130-092-545). Metabolites from Th1 and Th17 cells were extracted and analyzed by LC-HRMS using a Q-Exactive as described previously (Gerriets et al., 2015). Data were range scaled and analyzed using Metaboanalyst 3.5 (Xia and Wishart, 2002) to generate heat maps and for principle component analyses.
# Th17 cells [2] = assay: ATAC-Seq chromatin accessibility, Th17; conditions: Th17, 500 nM CB839, day 5
# Method: ATAC-Seq: Crude nuclei pellets were isolated as described elsewhere (see, e.g., Buenrostro et al., 2013 Nat Meth. 10(12):1213-1218) with modifications. Briefly, naïve CD4 T cells were skewed to Th1 and Th17 subsets in vitro with vehicle or in the presence of 500 nM CB839. At Day 5, T cells were re-isolated for CD4+ cells using Miltenyi CD4+ negative selection kit (Cat #: 130-104-454). 1×10^5 cells were removed for nuclei extraction in ATAC-Seq lysing buffer. Cells were exposed to Tn5+ adaptor proteins from Nextera DNA for 30 min at 37° C. and immediately placed on ice. Transposed eluate was amplified via PCR using Nextera DNA preparation kit (Illumina, Cat #: FC-121-1030), NEBNext High-fidelity 2× PCR mix (New England Labs, Cat #: M0541), and multiplexed (Illumina, Cat #: FC-121-1011). Samples were purified using Zymo DNA cleanup kit (Cat #: D4011). QC of samples was run on bioanalyzer before being sent for sequencing. RNA-Seq: Th1 and Th17 cells skewed with or without CB839 were isolated as previously described and total RNA extracted (Qiagen RNEasy Mini kit, Cat #: 74104). RNA was sent to VANTAGE core at Vanderbilt University and sequenced on HiSeq 2500. n=3 for each sample was analyzed. Samples were analyzed using the R program DESeq2. GSEA was performed using MSigDB. […]
structure (smiles),measurement,setting,value
O=C(Cc1cccc(OC(F)(F)F)c1)Nc1ccc(CCCCc2nnc(NC(=O)Cc3ccccn3)s2)nn1 [CB839],oxygen consumption (T cell respiration),stimulated T cells,neither UK5099 nor CB839 were sufficient on their own to reduce T cell respiration; also recorded: neither UK5099 nor CB839 were sufficient to reduce T cell respiration alone
same,2-hydroxyglutarate (2-HG),"Th17 cells [1]; Th17, CB839-treated vs vehicle",increased in both Th1 and Th17
same,intracellular α-KG,"Th17 cells [1]; Th17, CB839-treated vs vehicle","reduced in CB839-treated Th1, but not Th17 cells"
same,programs of intracellular metabolites,"Th17 cells [1]; Th17, differentiated with CB839, 5 days",more pronounced in Th17 than in Th1 cells; also recorded: shifted
same,glutamate and aspartate levels,"Th17 cells [1]; Th17, over five days",rapidly decreased
same,steady state levels of glutamine,"Th17 cells [1]; Th17, over five days",rapidly increased
same,Hits,"Th17 cells [1]; Alanine, aspartate and glutamate metabolism",5
same,Hits,Th17 cells [1]; Pentose phosphate pathway,5
same,Hits,"Th17 cells [1]; Phenylalanine, tyrosine and tryptophan biosynthesis",2
same,Hits,Th17 cells [1]; Purine metabolism,8
same,genes with regions of altered chromatin accessibility,Th17 cells [2],more genes with regions of reduced accessibility
